Laboratory results published in PMC12720774, “Detergents alter the stability and lipid binding properties of the CD1d immunoreceptor” (Protein Science : A Publication of the Protein Society, 2025).
Where “and” joins values, the source holds several entries; their conditions need not be identical. Equal values may be shown once.

How the values were obtained:
Format in all cases: binding
[1] = molecular target: T1, CSP 319‐328/HLA‐B*08:01/hβ2M complex (Homo sapiens, UniProt P01889, A93T/A95T/D138N/E176V/E187T/K202T/Q94N/R180D/S35A/V36M/Y33D/Y91F); assay: ITF with peptide/HLA complex; conditions: for ITF change in Trp fluorescence (F-F0/F0): peptide/HLA with Tween 20, replicates
T1 construct: made in house
From the text: (§1) To determine whether detergent effects were specific to hCD1d, we performed analogous ITF, MST, and nanoDSF experiments with a peptide/HLA complex. HLA‐B*08:01, presenting the Plasmodium falciparum derived peptide […] ([…]), was selected as a representative model system since the peptide antigen contains hydrophilic solvent‐exposed residues in the antigen‐binding groove (Frooman et al., [2025]). Although structurally similar to that of hCD1d, HLA‐B*08:01 shares low sequence identity (Figure S10a). […] By nanoDSF, ODG caused minimal destabilization of either complex (ΔT m≈−0.2 to −0.8°C; Figure S10f). […] We posit that lipid‐specific unloading effects of detergent are due to either hydrophobic residues in the antigen binding groove (detergent‐CD1d interactions) and/or the hydrophobic nature of the lipid antigen (detergent‐lipid interactions).
(§2) For comparison with peptide/HLA molecules, we prepared recombinant CSP 319‐328/HLA‐B*08:01/hβ2M complex using in vitro refolding methods fully described previously (Frooman et al., [2025]). The peptide sequence for CSP 319–328 is […]. This peptide was chosen since it contains Lys, Gln, and Asp residues predicted to be solvent‐exposed in the HLA‐B*08:01 binding groove (Frooman et al., [2025]).
ITF experiments with peptide/HLA molecules and detergents were performed using an analogous protocol.

[2] = molecular target: T1, CSP 319‐328/HLA‐B*08:01/hβ2M complex; assay: MST with peptide/HLA complex; conditions: for MST normalized fluorescence signal (Fnorm): peptide/HLA with Tween 20, replicates
From the text: as §1, §2
MST experiments with peptide/HLA molecules and detergents were performed using an analogous protocol.

[3] = molecular target: T1, CSP 319‐328/HLA‐B*08:01/hβ2M complex; assay: nanoDSF with peptide/HLA complex; conditions: for nanoDSF melting temperature of peptide/HLA: peptide/HLA with Tween 20, replicates
From the text: as §1, §2
NanoDSF experiments with peptide/HLA molecules and detergents were performed using an analogous protocol.

[4] = concentration 6.25e-5 (unit not given)
[5] = concentration 0.000125 (unit not given)
[6] = concentration 0.00025 (unit not given)

## Tween 20
[1]; 100 nM peptide/HLA, 25°C, read-out: K D (ITF), peptide/HLA
  Kd: 7.7 ± 0.8 µM
[1]; concentration 3.05e-8 (unit not given)
  ITF change in Trp fluorescence (F-F0/F0): 0
[1]; concentration 6.1e-8 (unit not given)
  ITF change in Trp fluorescence (F-F0/F0): -0.0537 and 0.114 and 0.0797
[1]; concentration 1.22e-7 (unit not given)
  ITF change in Trp fluorescence (F-F0/F0): 0.119 and -0.000172 and -0.0554
[1]; concentration 2.44e-7 (unit not given)
  ITF change in Trp fluorescence (F-F0/F0): -0.00869 and 0.126 and 0.0688
[1]; concentration 4.88e-7 (unit not given)
  ITF change in Trp fluorescence (F-F0/F0): 0.121 and 0.101 and 0.0628
[1]; concentration 9.77e-7 (unit not given)
  ITF change in Trp fluorescence (F-F0/F0): 0.12 and -0.0283 and -0.0494
[1]; concentration 1.95e-6 (unit not given)
  ITF change in Trp fluorescence (F-F0/F0): 0.159 and 0.0122 and -0.04
[1]; concentration 3.91e-6 (unit not given)
  ITF change in Trp fluorescence (F-F0/F0): 0.0962 and 0.218 and 0.169
[1]; concentration 7.81e-6 (unit not given)
  ITF change in Trp fluorescence (F-F0/F0): 0.176 and 0.206 and 0.0921
[1]; concentration 1.56e-5 (unit not given)
  ITF change in Trp fluorescence (F-F0/F0): 0.336 and 0.182 and 0.11
[1]; concentration 3.13e-5 (unit not given)
  ITF change in Trp fluorescence (F-F0/F0): 0.356 and 0.339 and 0.0994
[1]; [4]
  ITF change in Trp fluorescence (F-F0/F0): 0.189 and 0.365 and 0.248
[1]; [5]
  ITF change in Trp fluorescence (F-F0/F0): 0.38 and 0.23 and 0.139
[1]; [6]
  ITF change in Trp fluorescence (F-F0/F0): 0.261 and 0.271 and 0.181
[2]; 100 nM AF647‐labeled peptide/HLA, 25°C, read-out: K D (MST), peptide/HLA
  Kd: 10.1 ± 2.8 µM
[2]; concentration 3.05176e-8 (unit not given)
  MST normalized fluorescence signal (Fnorm): 826.857 and 829.996 and 831.035
[2]; concentration 6.10352e-8 (unit not given)
  MST normalized fluorescence signal (Fnorm): 827.636 and 831.405 and 830.579
[2]; concentration 1.2207e-7 (unit not given)
  MST normalized fluorescence signal (Fnorm): 825.955 and 829.58 and 832.602
[2]; concentration 2.44141e-7 (unit not given)
  MST normalized fluorescence signal (Fnorm): 826.8 and 829.861 and 831.726
[2]; concentration 4.88281e-7 (unit not given)
  MST normalized fluorescence signal (Fnorm): 824.798 and 829.349 and 832.449
[2]; concentration 9.76563e-7 (unit not given)
  MST normalized fluorescence signal (Fnorm): 827.728 and 832.261 and 832.695
[2]; concentration 1.95313e-6 (unit not given)
  MST normalized fluorescence signal (Fnorm): 829.662 and 834.525 and 833.392
[2]; concentration 3.90625e-6 (unit not given)
  MST normalized fluorescence signal (Fnorm): 826.877 and 835.214 and 835.492
[2]; concentration 7.8125e-6 (unit not given)
  MST normalized fluorescence signal (Fnorm): 836.072 and 833.005 and 835.4
[2]; concentration 1.5625e-5 (unit not given)
  MST normalized fluorescence signal (Fnorm): 830.346 and 831.213 and 835.161
[2]; concentration 3.125e-5 (unit not given)
  MST normalized fluorescence signal (Fnorm): 838.975 and 840.638 and 846.826
[2]; [4]
  MST normalized fluorescence signal (Fnorm): 839.005 and 846.034 and 849.234
[2]; [5]
  MST normalized fluorescence signal (Fnorm): 840.518 and 838.062 and 842.957
[2]; [6]
  MST normalized fluorescence signal (Fnorm): 834.255 and 840.226 and 843.206
[2]; concentration 0.0005 (unit not given)
  MST normalized fluorescence signal (Fnorm): 839.953 and 837.123 and 843.815
[2]; concentration 0.001 (unit not given)
  MST normalized fluorescence signal (Fnorm): 833.107 and 838.64 and 841.342
[3]; absence vs maximum concentration of detergent, 1 μM peptide/HLA
  ΔT m (nanoDSF), peptide/HLA: ≈ −0.3 °C
[3]; concentration 0.030518 (unit not given)
  nanoDSF melting temperature of peptide/HLA: 55.19 and 55.32 and 55.37
[3]; concentration 0.061035 (unit not given)
  nanoDSF melting temperature of peptide/HLA: 55.29 and 55.45 and 55.24
[3]; concentration 0.12207 (unit not given)
  nanoDSF melting temperature of peptide/HLA: 55.51 and 55.26 and 55.3
[3]; concentration 0.244141 (unit not given)
  nanoDSF melting temperature of peptide/HLA: 55.15 and 55.36 and 55.47
[3]; concentration 0.488281 (unit not given)
  nanoDSF melting temperature of peptide/HLA: 55.37 and 55.28 and 55.18
[3]; concentration 0.976563 (unit not given)
  nanoDSF melting temperature of peptide/HLA: 55.33 and 55.35 and 55.37
[3]; concentration 1.95312 (unit not given)
  nanoDSF melting temperature of peptide/HLA: 55.37 and 55.15
[3]; concentration 3.90625 (unit not given)
  nanoDSF melting temperature of peptide/HLA: 55.29 and 55.17 and 55.23
[3]; concentration 7.8125 (unit not given)
  nanoDSF melting temperature of peptide/HLA: 55.43 and 55.31 and 55.36
[3]; concentration 15.625 (unit not given)
  nanoDSF melting temperature of peptide/HLA: 55.24 and 55.22 and 55.41
[3]; concentration 31.25 (unit not given)
  nanoDSF melting temperature of peptide/HLA: 55.63 and 55.25 and 55.23
[3]; concentration 62.5 (unit not given)
  nanoDSF melting temperature of peptide/HLA: 55.32 and 55.31 and 55.25
[3]; concentration 125 (unit not given)
  nanoDSF melting temperature of peptide/HLA: 55.13 and 55.18 and 55.19
[3]; concentration 250 (unit not given)
  nanoDSF melting temperature of peptide/HLA: 55.22 and 55.06 and 55.24
[3]; concentration 500 (unit not given)
  nanoDSF melting temperature of peptide/HLA: 54.35 and 55.14 and 54.93
[3]; concentration 1000 (unit not given)
  nanoDSF melting temperature of peptide/HLA: 55.13 and 54.89 and 54.93
